Results as given in ChEMBL document CHEMBL5046262, “Fragment-Based Discovery of MRTX1719, a Synthetic Lethal Inhibitor of the PRMT5•MTA Complex for the Treatment of MTAP-Deleted Cancers” (J Med Chem, 2022).

Key:
[1] = Efflux ratio of apparent permeability across basolateral to apical side over apical to basolateral side in dog MDCKII-MDR1 cells at 2 uM incubated for 2.5 hrs by LC-MS/MS analysis; format: ADME, cell-based, Canis lupus familiaris, MDCK-MDR1; settings: MDCK-MDR1
[2] = Apparent permeability across apical to basolateral side in dog MDCKII-MDR1 cells at 2 uM incubated for 2.5 hrs by LC-MS/MS analysis; format: ADME, cell-based, Canis lupus familiaris, MDCK-MDR1; settings: MDCK-MDR1
[3] = Intrinsic clearance in human hepatocytes; format: ADME, cell-based, Hepatocyte; settings: read-out: CLH
HCT-116 [4] = assay: Antiproliferative activity against human HCT-116 cells expressing wild type MTAP assessed as reduction in cell viability incubated for 5 days followed by replacement with fresh medium containing compound and measured after 5 days by CTG assay; format: functional, cell-based
[5] = biological target: T1, Protein arginine N-methyltransferase 5 (Homo sapiens, UniProt O14744); assay: Inhibition of PRMT5 methyltransferase activity in MTAP knockout human HCT-116 cells assessed as inhibition of PRMT5- mediated SDMA modification level incubated for 96 hrs by Western blot analysis; format: cell-based
T1 sequence (O14744 whole entry): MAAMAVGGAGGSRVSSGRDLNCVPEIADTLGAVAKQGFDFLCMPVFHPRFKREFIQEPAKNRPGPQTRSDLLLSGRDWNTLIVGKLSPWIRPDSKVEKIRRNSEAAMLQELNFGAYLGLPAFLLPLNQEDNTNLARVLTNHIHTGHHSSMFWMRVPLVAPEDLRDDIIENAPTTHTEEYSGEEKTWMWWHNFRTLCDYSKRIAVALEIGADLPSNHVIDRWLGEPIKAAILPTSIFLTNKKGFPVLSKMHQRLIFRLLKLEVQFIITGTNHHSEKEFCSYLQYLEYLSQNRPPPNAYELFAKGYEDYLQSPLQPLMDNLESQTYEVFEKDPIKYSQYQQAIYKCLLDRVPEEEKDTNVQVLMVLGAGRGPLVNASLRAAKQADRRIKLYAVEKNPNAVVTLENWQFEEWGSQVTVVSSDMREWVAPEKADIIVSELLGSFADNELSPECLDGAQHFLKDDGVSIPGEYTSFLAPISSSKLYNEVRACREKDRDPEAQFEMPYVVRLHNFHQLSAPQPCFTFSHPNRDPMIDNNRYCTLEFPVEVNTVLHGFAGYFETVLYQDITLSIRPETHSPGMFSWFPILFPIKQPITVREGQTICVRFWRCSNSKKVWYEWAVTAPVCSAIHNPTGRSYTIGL

HCT-116 [6] = assay: Antiproliferative activity against MTAP knockout human HCT-116 cells assessed as reduction in cell viability incubated for 5 days followed by replacement with fresh medium containing compound and measured after 5 days by CTG assay; format: functional, cell-based
[7] = biological target: T1, Protein arginine N-methyltransferase 5; assay: Inhibition of PRMT5 methyltransferase activity in human HCT-116 cells expressing wild type MTAP assessed as inhibition of PRMT5- mediated SDMA modification level incubated for 96 hrs by Western blot analysis; format: cell-based
[8] = Intrinsic clearance in mouse hepatocytes; format: ADME, cell-based, Hepatocyte; settings: read-out: CLH
Homo sapiens [9] = species on record: Homo sapiens; assay: Selectivity ratio of IC50 for inhibition of PRMT5 methyltransferase activity in human HCT-116 cells expressing wild type MTAP to IC50 for nhibition of PRMT5 methyltransferase activity in MTAP knockout human HCT-116 cells; format: cell-based
[10] = biological target: T1, Protein arginine N-methyltransferase 5
[11] = Total clearance in CD-1 mouse at 3 mg/kg, iv measured upto 24 hrs by LC-MS/MS analysis; format: ADME, organism-based; settings: in vivo
[12] = Oral bioavailability in CD-1 mouse at 30 mg/kg administered via gavage measured upto 24 hrs by LC-MS/MS analysis; format: ADME, organism-based; settings: in vivo
[13] = Half life in CD-1 mouse at 3 mg/kg, iv measured upto 24 hrs by LC-MS/MS analysis; format: ADME, organism-based; settings: in vivo
[14] = Volume of distribution at steady state in CD-1 mouse at 3 mg/kg, iv measured upto 24 hrs by LC-MS/MS analysis; format: ADME, organism-based; settings: in vivo, read-out: Vdss
Homo sapiens [15] = species on record: Homo sapiens; assay: Selectivity ratio of IC50 for inhibition of human PRMT5 co-complexed with MEP50 in absence of MTA to IC50 for inhibition of MTA-bound human PRMT5 co-complexed with MEP50
[16] = biological target: T1, Protein arginine N-methyltransferase 5; remark: listed apart in the source

Row | Ratio IC50 (Homo sapiens [15]) | IC50 [16] [nM] | Compound | efflux ratio at 2.5 h, 2 µM [1] | Papp A→B at 2.5 h, 2 µM [2] [×10⁻⁶ cm/s] | CLint scaled [3] [mL/min/kg] | IC50 (HCT-116 [4]) [nM] | IC50 [5] [nM] | IC50 (HCT-116 [6]) [nM] | IC50 [7] [nM] | CLint scaled [8] [mL/min/kg] | Ratio IC50 (Homo sapiens [9]) | IC50 [10] [nM] | clearance [11] [mL/min/kg] | bioavailability [12] [%] | half-life [13] [h] | Vd [14] [L/kg]
1 | – | – | Cn1ncc(-c2ccc3c(=O)[nH]nc(CN)c3c2)c1-c1ccc2ccccc2c1C#N | 99 | 0.4 | < 18 | 1980 | 11 | 49 | 1210 | 340 | – | – | – | – | – | –
2 | – | – | Cn1ncc(-c2ccc3c(=O)[nH]nc(CN)c3c2)c1-c1ccccc1C#N | 7 | 1.6 | < 18 | > 10000 | 826 | 5230 | 3170 | 148 | 4 | 4000 | – | – | – | –
3 | – | – | Cn1ncc(-c2ccc3c(=O)[nH]nc(CN)c3c2)c1-c1cccc(Cl)c1C#N | 35 | 0.7 | < 18 | > 10000 | 62 | 544 | 8810 | 232 | – | 2000 | 121 | 12 | 1.3 | 6.6
4 | 16 | 11600 | NCc1n[nH]c(=O)c2ccc(-c3cnsc3)cc12 | 0.8 | 11.1 | – | – | – | – | – | – | – | 710 | – | – | – | –
5 | – | – | Cn1ncc(-c2ccc3c(=O)[nH]nc(CN)c3c2)c1-c1ccccc1 | 20 | 1.5 | 23 | 4060 | 2470 | 3650 | 9810 | 123 | – | 3000 | – | – | – | –
6 | – | – | Cn1ncc(-c2ccc3c(=O)[nH]nc(CN)c3c2)c1-c1cc2ccccc2cc1C#N | 31 | 0.5 | < 18 | 5090 | 118 | 264 | – | 212 | – | – | – | – | – | –
7 | 3 | – | NCc1n[nH]c(=O)c2ccc(-c3ccccc3)cc12 | – | – | – | – | – | – | – | – | – | – | – | – | – | –
8 | – | – | COc1cccc(-c2c(-c3ccc4c(=O)[nH]nc(CN)c4c3)cnn2C)c1C#N | 20 | 0.6 | < 18 | > 10000 | 62 | 851 | > 10000 | 137 | – | 1000 | – | – | – | –
9 | 16 | 11200 | NCc1n[nH]c(=O)c2ccc(-c3cnn(CCO)c3)cc12 | 0.9 | 0.9 | – | – | – | – | – | – | – | – | – | – | – | –
10 | – | – | Cc1cccc(-c2c(-c3ccc4c(=O)[nH]nc(CN)c4c3)cnn2C)c1C#N | 36 | 0.6 | 29 | > 10000 | 101 | 365 | 8830 | 296 | – | 3000 | – | – | – | –
11 | – | – | CC(=O)N1CCC(Nc2cc(C(=O)NC[C@H](O)CN3CCc4ccccc4C3)ncn2)CC1 [PEMRAMETOSTAT] | – | – | – | 237 | – | 189 | – | – | – | – | – | – | – | –
12 | 24 | 7650 | CCCn1cc(-c2ccc3c(=O)[nH]nc(CN)c3c2)cn1 | 2.7 | 3.2 | – | – | – | – | – | – | – | 320 | – | – | – | –
13 | 12 | 69000 | Cc1ccc(-c2ccc3c(=O)[nH]nc(CN)c3c2)cn1 | 3.5 | 4.7 | – | – | – | – | – | – | – | 5800 | – | – | – | –
14 | – | – | NCc1n[nH]c(=O)c2ccc(-c3cncs3)cc12 | 0.6 | 14.6 | – | – | – | – | – | – | – | – | – | – | – | –
